Results taken from patent US9125429B2, “High-potency sweetener composition with fatty acid and compositions sweetened therewith” (THE COCA-COLA COMPANY, priority 2005, dated 2015).

System: panel of experts in the sensory evaluation of foods and beverages
Assay: Sensory evaluation of sweetness linger and taste characteristics by expert panel
Type: in vivo
Parameters: key: 0=no sweetness linger; 1=very slight sweetness linger; 2=slight sweetness linger; 3=moderate sweetness linger; 4=moderately high sweetness linger; 5=high sweetness linger

## rebaudioside A
Example Set G: 400 ppm REBA in citric acid/potassium citrate composition equivalent to diet lemon-lime beverage (sugar control 8 g in 100 ml citrate buffer), scale 0-5, sweetness 3-4 min after water rinse
  sweetness linger: 5
Example Set H: REBA (500 ppm; H41 360 ppm) in carbon-treated water, phosphoric acid (75%) to pH 2.4-2.5 (sugar control 10 g in 100 ml), scale 0-5
  sweetness linger: 5
